Measurements as given in ChEMBL document CHEMBL1135326, “Structure-activity relationship studies of ethyl 2-[(3-methyl-2,5-dioxo(3-pyrrolinyl))amino]-4-(trifluoromethyl)pyrimidine-5-carboxylate: an inhibitor of AP-1 and NF-kappaB mediated gene expression” (Bioorg Med Chem Lett, 2002).

system: Jurkat; assay: Inhibition of AP-1 and NF-kB-mediated transcriptional activation in Jurkat cells; type: functional, cell-based, Homo sapiens; details: Homo sapiens, Jurkat

Row | SMILES | IC50 [nM]
1 | CCOC(=O)c1cnc(NN2C(=O)C=C(C)C2=O)nc1-c1cccs1 | 140
2 | CCOC(=O)c1cnc(N(C)N2C(=O)C=C(C)C2=O)nc1-c1nccs1 | 1700
3 | CCCC(=O)c1cnc(NN2C(=O)C=C(C)C2=O)nc1CC | 450
4 | CCc1nc(NN2C(=O)C=C(C)C2=O)ncc1-c1nc(C)co1 | 830
5 | CCc1nc(NN2C(=O)C=C(C)C2=O)ncc1-c1nnc(C)o1 | 10000
6 | CCOC(=O)c1cnc(NN2C(=O)C=C(C)C2=O)nc1-c1ccsc1 | 200
7 | CC1=CC(=O)N(Nc2ncc(C(=O)N(C)C)c(C(F)(F)F)n2)C1=O | 30000
8 | CCOC(=O)c1cnc(N(C(=O)NC)N2C(=O)C=C(C)C2=O)nc1C(F)(F)F | 590
9 | CCc1nc(NN2C(=O)C=C(C)C2=O)ncc1-c1nnn(C)n1 | 10000
10 | CCOC(=O)c1cnc(N(C)N2C(=O)C=C(C)C2=O)nc1-c1ccc(C)s1 | 350
11 | CCOC(=O)c1cnc(N)nc1C(F)(F)F | 30000
12 | CC1=CC(=O)N(Nc2ncc(C(=O)c3ccccc3)c(C(F)(F)F)n2)C1=O | 98
13 | CC(=O)c1cnc(NN2C(=O)C=C(C)C2=O)nc1C | 7700
14 | CCOC(=O)c1cnc(NN2C(=O)C=C(C)C2=O)nc1C | 1900
15 | CCOC(=O)c1cnc(NN2C(=O)C=C(C)C2=O)nc1-c1ccc(Cl)s1 | 520
16 | CCOC(=O)c1cnc(NN2C(=O)C=C(c3ccccc3)C2=O)nc1C(F)(F)F | 3700
17 | CC1=CC(=O)N(Nc2ncc(C(=O)O)c(C(F)(F)F)n2)C1=O | 30000
18 | CCOC(=O)c1cnc(NN2C(=O)C=C(C)C2=O)nc1-c1cc2ccccc2s1 | 800
19 | CC1=CC(=O)N(Nc2ncc(-c3nc(C)co3)c(-c3cccs3)n2)C1=O | 760
20 | CCOC(=O)c1cnc(N(Cc2ccccc2)N2C(=O)C=C(C)C2=O)nc1C(F)(F)F | 450
21 | CCc1nc(N(C)N2C(=O)C=C(C)C2=O)ncc1C(=O)c1ccccc1 | 410
22 | CCOC(=O)c1cnc(N(C)N2C(=O)C=C(C)C2=O)nc1C(F)(F)C(F)(F)F | 350
23 | CCOC(=O)c1cnc(N(C(=O)c2ccccc2)N2C(=O)C=C(C)C2=O)nc1C(F)(F)F | 830
24 | CCOC(=O)c1cnc(NN2C(=O)C=C(C)C2=O)nc1 | 13000
25 | CCOC(=O)c1cnc(NN2C(=O)C=C(C)C2=O)nc1C(F)(F)C(F)(F)F | 200
26 | CCc1nc(NN2C(=O)C=C(C)C2=O)ncc1C(=O)c1ccccc1 | 650
27 | CCOC(=O)c1cnc(NN2C(=O)C=C(C)C2=O)nc1CC | 400
28 | CC1=CC(=O)N(Nc2ncc(C(=O)OC(C)(C)C)c(-c3cccs3)n2)C1=O | 50

Row | SMILES | IC50 [nM]
29 | CCc1nc(NN2C(=O)C=C(C)C2=O)ncc1-c1ncc(-c2ccccc2)o1 | 2800
30 | CCOC(=O)c1cnc(NN2C(=O)C=C(C)C2=O)nc1-c1ccccc1 | 1200
31 | CCOC(=O)c1cnc(N(C(=O)OCC)N2C(=O)C=C(C)C2=O)nc1C(F)(F)F | 380
32 | CCc1nc(NN2C(=O)C=C(C)C2=O)ncc1C(=O)OC1CC1 | 120
33 | CCc1nc(NN2C(=O)C=C(C)C2=O)ncc1-c1cc(C)no1 | 10000
34 | CCOC(=O)c1cnc(N(C)N2C(=O)C=C(C)C2=O)nc1CC | 35
35 | CCOC(=O)c1cnc(N(C)N2C(=O)C=C(C)C2=O)nc1-c1ccsc1 | 120
36 | CCc1nc(NN2C(=O)C=C(C)C2=O)ncc1CO | 4900
37 | CCc1nc(N(C)N2C(=O)C=C(C)C2=O)ncc1COC | 630
38 | CCOC(=O)c1cnc(NN2C(=O)C=C(C)C2=O)nc1-c1ccc(C)s1 | 45
39 | CC1=CC(=O)N(Nc2ncc(C(N)=O)c(C(F)(F)F)n2)C1=O | 30000
40 | CCOC(=O)c1cnc(NN2C(=O)C=C(C)C2=O)nc1COC | 6000
41 | CCOC(=O)c1cnc(NN2C(=O)C=C(C)C2=O)nc1C1CC1 | 1500
42 | CC1=CC(=O)N(Nc2ncc(C(=O)OC(C)(C)C)c(C(F)(F)F)n2)C1=O | 210
43 | CCOC(=O)c1cnc(N(C)N2C(=O)C=C(C)C2=O)nc1-c1cc2ccccc2s1 | 130
44 | CCOC(=O)c1cnc(NN2C(=O)CCC2=O)nc1C(F)(F)F | 1600
45 | CCOC(=O)c1cnc(N(C)N2C(=O)C=C(C)C2=O)nc1C(F)(F)F | 300
46 | CCOC(=O)c1cnc(N(C(C)=O)N2C(=O)C=C(C)C2=O)nc1C(F)(F)F | 410
47 | CCOC(=O)c1cnc(NN2C(=O)C=C(C)C2=O)nc1Cc1ccccc1 | 3800
48 | CCOC(=O)c1cnc(NN2C(=O)C=C(C)C2=O)nc1C(F)(F)F | 2000
49 | CCOC(=O)c1cnc(NN2C(=O)C=C(C)C2=O)nc1-c1nccs1 | 2200
50 | CCOC(=O)c1cnc(NN2C(=O)C=C(C)C2=O)nc1-c1ccco1 | 1000
51 | CCc1nc(NN2C(=O)C=C(C)C2=O)ncc1C#N | 1100
52 | CCOC(=O)c1cnc(N(C)N2C(=O)C=C(C)C2=O)nc1-c1cccs1 | 94
53 | CCCc1nc(N(C(C)=O)N2C(=O)C=C(C)C2=O)ncc1C(=O)OCC | 430
54 | CCOC(=O)c1cnc(NN2C(=O)C(C)=C(C)C2=O)nc1C(F)(F)F | 3900
55 | CC(=O)c1cnc(NN2C(=O)C=C(C)C2=O)nc1C(F)(F)F | 4400

same assay, conditions: jurkat

Row | SMILES | IC50 [nM]
56 | CCOC(=O)c1cnc(N(C)N2C(=O)C=C(C)C2=O)nc1C(F)(F)C(F)(F)F | 450
